{"source": "patent US20240158447A1", "about": "“PEPTIDES FOR USE IN THE TREATMENT OR PREVENTION OF MYOCARDIAL DAMAGE” (THE UNIVERSITY OF WESTERN AUSTRALIA, priority 2020, published 2024)", "key": {"[1]": {"biological_target": "T1, L-type Ca^2+ channel β2 subunit (Homo sapiens, UniProt Q08289)", "T1 construct": "from tissue; host or cells: whole heart (cardiac) lysate", "assay": "Binding competition assay of variant peptides for the β2 subunit (AID-coated beads, heart lysate, SDS-PAGE)", "details": "competition with bead-bound AID peptide, whole heart lysate, immunoblot densitometry; FIG. 2", "procedure": "The affinity of each of the variant peptides to the β2 subunit was investigated through binding competition assays.\nPureProteome™ NHS FlexiBind Magnetic Beads (Cat. #LSKMAGN04, Merck) were used following manufacturer recommendations. Aminohexanoic acid linked AID peptide was bound to the NHS flexibind magnetic beads at a concentration of more than 2 mg/mL to obtain saturation of the beads with peptide. Beads were first primed with an equilibration buffer (1 mM HCL) to prepare them for binding. The Ahx-AID peptide was dissolved in wash/coupling buffer (PBS, pH 7.4) and added to the beads. The beads-AID peptide mixture was left to mix uniformly on a multiplate shaker at a speed of 300 rpm at room temperature for 2 hours. To reduce non-specific binding the beads were incubated in Quench Buffer (100 mM Tris-HCl, 150 mM NaCl, pH 8.0) at room temperature for 1 hour.\nThe AID-peptide bound beads were split into 5 aliquots for the 5 samples prepared in Table 5. The whole heart lysate added to each of the peptide-bound beads to allow competitive binding for 2 hours at room temperature.\nUpon completion, the conjugate was washed in coupling buffer, to remove unbound fraction. SDS sample buffer was added to the beads, with the tubes then heated for 5 minutes at 95° C. The eluted sample stored at −20° C. to be run through sodium dodecyl sulfate-polyacrymalide gel electrophoresis (SDS-PAGE) to determine the binding affinity of each of the variants.\nThe use of streptavidin dynabeads and biotinylated peptide was developed to improve the binding affinity assays. The peptide was initially biotinylated using EZ-link amine-PEG11-biotin (Spacer arm: 53.2 Å, Thermofisher Scientific, Cat. #26136) which was dissolved in 0.1M MES buffer ((2-N-morpholino)-ethanesulfonic acid) at a concentration of 1 mM. Just prior to the reaction, 0.1M EDC (N-(3-Dimethylaminopropyl)-N′-ethylcarbodiimide hydrochloride) was dissolved in MES buffer. In order to achieve complete biotinylation of the AID peptide, a 50× molar excess of biotin to peptide was required, with the total volumes of each component required shown in Table 6.\nEach 78 μL aliquot of the biotinylated peptide shown in […] was enough for 6 reactions, covering the range of concentrations in which the heart lysate was again prepared with varying concentrations of the variant AID peptides according to Table 7.\nThe 78 μL aliquot of biotinylated AID-peptide was mixed with streptavidin dynabeads (1 mg Dynabeads per every 200 pmol biotinylated peptide) for half an hour at room temperature. The heart lysate ([…]) was incubated with the variant peptides at room temperature for 2 hours. After removing all unbound peptide from the beads, they were mixed with the pre-bound heart lysate for 2 hours at room temperature. The unbound fraction was removed. […]"}, "[2]": {"system": "wild type cardiac myocytes", "assay": "Intracellular calcium (Fura-2) after H2O2 in cardiac myocytes", "type": "cell-based, mouse", "details": "20 min incubation with 0.5-1 μM peptide; 30 μM H2O2 5 min; FIG. 3(a)", "procedure": "(§1) Adult male C57BL/6J mice were anesthetized with pentobarbitone sodium (240 mg/kg) via intraperitoneal injection prior to excision of the heart. Ventricular myocytes were isolated. Mouse hearts were cannulated onto a Langendorff apparatus via the aorta and perfused retrogradely with Krebs-Henseleit Buffer (KHB) containing (in mM): 120 NaCl, 25 NaHCO3, 4.8 KCl, 2.2 MgSO4, 1.2 NaH2PO4 and 11 glucose (pH=7.35 with O2/CO2 at 37° C.) for 4 min at 37° C. Hearts were then perfused with KHB supplemented with 2.4 mg/ml collagenase B for 3 min, then 8 min perfusion in the presence of 40 μM calcium. […]\n(§2) All in vitro studies were performed in freshly isolated myocytes at 37° C. […] Following a 20 min incubation with 0.5-1 μM AID(S)-TAT, AID-TAT, peptide 6 or peptide 7, fluorescent signal of individual myocytes was quantified using Metamorph 6.3 to measure signal intensity of manually traced cell regions. […]\nIntracellular calcium was monitored in cardiac myocytes using the fluorescent indicator Fura-2 AM (Fura-2, 1 μM, ex 340/380 nm, em 510 nm, Molecular Probes). […] Fluorescence at 340/380 nm excitation and 510 nm emission were measured at 1 minute intervals with an exposure of 50 ms before and after exposure to 30 μM H2O2 (5 min) and 10 U/ml catalase (5 min). Ratiometric 340/380 nm signal was quantified and reported as a percentage from the baseline pre-treatment average."}, "[3]": {"system": "myocytes isolated from cTnI-G203S mutant mouse hearts", "assay": "Mitochondrial flavoprotein oxidation after BayK(−), myocytes from HCM hearts (Example 6)", "type": "cell-based", "details": "FIG. 5", "procedure": "FIG. 5 presents the effect of mutant peptides on flavoprotein oxidation, a measure of metabolic activity and oxygen consumption in myocytes isolated from cTnI-G203S mutant mouse hearts that are hypertrophic.\nAll in vitro studies were performed in freshly isolated myocytes at 37° C. […] Following a 20 min incubation with 0.5-1 μM AID(S)-TAT, AID-TAT, peptide 6 or peptide 7, fluorescent signal of individual myocytes was quantified using Metamorph 6.3 to measure signal intensity of manually traced cell regions. An equivalent region not containing cells was used for background and was subtracted.\nAutofluorescence was used to measure flavoprotein oxidation in cardiac myocytes based on previously described methods (480 nm ex, 535 nm em). Fluorescent images were taken at 1 min intervals with 1 s exposure before and after exposure to L-type Ca2+ channel agonist BayK(−). Fluorescence was reported as a percentage from the baseline pre-treatment average."}, "[4]": {"system": "wildtype cardiac myocytes", "assay": "Mitochondrial flavoprotein oxidation after BayK(−), wildtype cardiac myocytes (Example 6)", "type": "cell-based, mouse", "details": "wild type hearts, FIG. 4", "procedure": "as §1, with “calcium. Following perfusion, aorta and atria were removed, and ventricles gently teased apart and triturated to dissociate myocytes into suspension.” for “calcium.”\nas §2\nAutofluorescence was used to measure flavoprotein oxidation in cardiac myocytes based on previously described methods (480 nm ex, 535 nm em). […] Fluorescence was reported as a percentage from the baseline pre-treatment average."}, "[5]": {"system": "wild type cardiac myocytes", "assay": "Intracellular superoxide (DHE) after H2O2 in cardiac myocytes", "type": "cell-based, mouse", "details": "20 min incubation with 0.5-1 μM peptide; 30 μM H2O2 5 min; FIG. 3(b)", "procedure": "as §1, with “calcium. Following perfusion, aorta and atria were removed, and ventricles gently teased apart and triturated to dissociate myocytes into suspension.” for “calcium.”\nas §2\nSuperoxide generation was assessed in cardiac myocytes using the fluorescent indicator dihydroethidium (DHE, 5 μM, 515-560 nm ex filter, 590 long pass em, Merck). […] Fluorescence was reported as percentage change in the slope of the signal measured at 20-40 min (treatment) over 1-10 min (pre-treatment)."}}, "note": "Entries after “also recorded” stand apart in the source; their conditions may differ.", "data": [{"sequence": "QQQEEDLKGYLDWITQAE (Variant P7)", "values": [{"measurement": "binding affinity (K0.5) for the target β2 subunit versus the original AID peptide", "setting": "[1]", "value": "greater binding affinity (lower K0.5)"}, {"measurement": "H2O2 induced increase in intracellular Ca2+ (Fura 2)", "setting": "[2]", "value": "altered the increase in Fura 2 following H2O2; also recorded: more effective at decreasing H2O2 induced increases in intracellular Ca^2+ (Fura 2) and superoxide production (DHE) than AID-TAT"}, {"measurement": "flavoprotein oxidation in comparison with AID-TAT peptide", "setting": "[3]", "value": "statistically significant reduction in flavoprotein oxidation in comparison with AID-TAT peptide"}, {"measurement": "flavoprotein oxidation in comparison with AID-TAT peptide", "setting": "[4]", "value": "statistically significant reduction in flavoprotein oxidation in comparison with AID-TAT peptide"}, {"measurement": "H2O2 induced superoxide production (DHE)", "setting": "[5]", "value": "more effective at decreasing H2O2 induced increases in intracellular Ca^2+ (Fura 2) and superoxide production (DHE) than AID-TAT"}]}]}
